This passage reports ED50 results from patent US4971970A, “Benzoheterocyclic compounds” (Otsuka Pharmaceutical Company, Limited, priority 1988, dated 1990).

The test system of this assay is Escherichia coli No. 29 strain. Nature of the assay: Antimicrobial activity in vivo (ED50 in mice infected with Escherichia coli No. 29). As to conditions: mice (10 per group), i.p. infection with E. coli No. 29 (10^5 -10^6 cells/mouse) in mucin, compound oral one hour after infection, observed one week, Probit method, read-out: 50 % effective dose (ED50). The protocol:
Experiment (Antimicrobial activity in vivo)
Escherichia coli No. 29 strain was cultured in a nutrient medium at 37° C., and the culture broth was diluted with the same medium and thereto was added an equivolume of 6 % mucin solution to prepare a cell solution.
The cell solution thus prepared (0.5 ml) (e. coli cells; 10^5 -10^6 cells/mouse) was intraperitoneally administered to mice (10 mice per group). […] From the number of dead mice and the survival mice, the 50 % effective dose (ED50) of the test compound was calculated by Probit method.

With `Cc1c(F)c(N2CCNC(C)C2)cc2c1c(=O)c(C=O)cn2C1CC1` (stereo not shown) [1-Cyclopropyl-6-fluoro-7-(3-methyl-1-piperazinyl)-5-methyl-3-formyl-1,4-dihydro-4-oxoquinoline], the ED50 is 0.331 mg/kg.
